The results in this text go back to US9796733B2, “Imidazo-pyrazine derivatives useful as soluble guanylate cyclase activators” (Merck Sharp & Dohme Corp., priority 2014, dated 2017).

This test concerns the target T1, sGC α1/β1 heterodimer (Homo sapiens, UniProt Q02108+Q02153).
T1 construct: expressed in transfected cells; host or cells: CHO-K1 (clone #7, CHO-K1/sGC)
T1 sequence (Q02108 1-690): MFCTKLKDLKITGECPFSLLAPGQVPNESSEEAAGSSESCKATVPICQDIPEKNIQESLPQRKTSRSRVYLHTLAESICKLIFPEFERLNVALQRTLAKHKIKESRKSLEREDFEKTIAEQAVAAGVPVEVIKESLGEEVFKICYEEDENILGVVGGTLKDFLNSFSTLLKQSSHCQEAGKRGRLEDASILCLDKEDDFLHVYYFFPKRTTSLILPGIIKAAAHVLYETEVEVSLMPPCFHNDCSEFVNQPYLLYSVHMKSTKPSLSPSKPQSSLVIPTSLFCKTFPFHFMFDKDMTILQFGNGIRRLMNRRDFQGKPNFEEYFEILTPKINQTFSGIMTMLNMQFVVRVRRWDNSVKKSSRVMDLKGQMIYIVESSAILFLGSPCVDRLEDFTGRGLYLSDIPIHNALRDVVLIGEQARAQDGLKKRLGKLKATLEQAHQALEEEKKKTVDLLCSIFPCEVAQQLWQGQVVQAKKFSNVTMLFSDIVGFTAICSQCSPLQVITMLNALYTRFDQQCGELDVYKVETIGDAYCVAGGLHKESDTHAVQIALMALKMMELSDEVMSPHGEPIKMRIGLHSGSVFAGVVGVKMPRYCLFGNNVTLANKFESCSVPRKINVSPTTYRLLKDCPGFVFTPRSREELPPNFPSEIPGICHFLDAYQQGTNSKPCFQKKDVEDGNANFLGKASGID
T1 sequence (Q02153 1-619): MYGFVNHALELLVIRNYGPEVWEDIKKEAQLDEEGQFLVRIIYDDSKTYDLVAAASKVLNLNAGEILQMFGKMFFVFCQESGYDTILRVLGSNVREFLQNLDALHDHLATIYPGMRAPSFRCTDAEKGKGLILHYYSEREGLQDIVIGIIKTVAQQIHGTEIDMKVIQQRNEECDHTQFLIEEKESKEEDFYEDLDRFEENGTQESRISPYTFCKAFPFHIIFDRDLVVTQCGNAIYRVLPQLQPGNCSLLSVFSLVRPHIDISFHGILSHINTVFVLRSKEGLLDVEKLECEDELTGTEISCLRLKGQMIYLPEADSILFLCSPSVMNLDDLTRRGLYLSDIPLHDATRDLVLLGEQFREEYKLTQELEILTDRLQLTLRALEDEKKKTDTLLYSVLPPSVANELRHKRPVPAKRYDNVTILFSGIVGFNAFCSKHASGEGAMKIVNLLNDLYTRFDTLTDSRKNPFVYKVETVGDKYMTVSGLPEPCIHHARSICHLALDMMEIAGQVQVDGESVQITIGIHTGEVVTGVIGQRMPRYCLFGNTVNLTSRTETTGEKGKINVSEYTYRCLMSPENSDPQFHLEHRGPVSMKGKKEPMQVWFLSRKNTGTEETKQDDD
Kind of test: Cell-based sGC functional assay (CASA assay): cGMP generation in CHO-K1/sGC cells, HTRF detection. The following applies: for Emax: CHO-K1, percent activation relative to standard Compound A in CHO-K1/sGC cells, read-out: % Act.; for EC50: inflection point (IP) of cGMP generation in CHO-K1/sGC cells, 4P fit, activity expressed as percentage of Compound A. The method in brief: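 Stable CHO-K1/sGC cells in EBSS buffer with 5 mM MgCl2, 0.05% BSA and 0.5 mM IBMX were incubated with compound (2.5% DMSO final) ±1 μM DETA-NO for 1 hr at 37° C. cGMP was measured by HTRF. Activation is expressed as % of reference HDA Compound A maximum, with IP and max fold induction from a 4P fit.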
For orientation: Time-resolved FRET reads energy transfer from a long-lived donor to a nearby acceptor.

Usually EC50 stands for the concentration at which the effect is half-maximal. Consider `CC1(c2ccc(Cl)cc2)C(=O)Nc2nc(-c3cn4cc(C(F)(F)F)nc4c(Cc4ccccc4F)n3)nc(N)c21` (stereo not drawn) [Example 151A, 4-amino-5-(4-chlorophenyl)-2-(8-(2-fluorobenzyl)-2-(trifluoromethyl)imidazo[1,2-a]pyrazin-6-yl)-5-methyl-5H-pyrrolo[2,3-d]pyrimidin-6(7H)-one], for which the Emax worked out at 106% and the EC50 was determined as 19 nM.

In the case of `CC1(c2ccc(F)cc2)C(=O)Nc2nc(-c3cn4cc(C(F)(F)F)nc4c(Cc4ccc(F)c(F)c4)n3)nc(N)c21` (stereo not drawn) [Example 152A, 4-amino-2-(8-(3,4-difluorobenzyl)-2-(trifluoromethyl)imidazo[1,2-a]pyrazin-6-yl)-5-(4-fluorophenyl)-5-methyl-5H-pyrrolo[2,3-d]pyrimidin-6(7H)-one], the Emax worked out at 129% and the EC50 was 43 nM.

For `CC1(c2ccc(Cl)cc2)C(=O)Nc2nc(-c3cn4cc(C(F)(F)F)nc4c(Cc4ccc(F)cc4)n3)nc(N)c21` (stereo not drawn) [Example 153A, 4-amino-5-(4-chlorophenyl)-2-(8-(4-fluorobenzyl)-2-(trifluoromethyl)imidazo[1,2-a]pyrazin-6-yl)-5-methyl-5H-pyrrolo[2,3-d]pyrimidin-6(7H)-one], the Emax is 110% and the EC50 was determined as 37 nM.

`CC1(c2ccc(F)cc2)C(=O)Nc2nc(-c3cn4cc(C(F)(F)F)nc4c(Cc4ccc(F)cc4)n3)nc(N)c21` (stereo not drawn) [Example 155A, 4-amino-2-(8-(4-fluorobenzyl)-2-(trifluoromethyl)imidazo[1,2-a]pyrazin-6-yl)-5-(4-fluorophenyl)-5-methyl-5H-pyrrolo[2,3-d]pyrimidin-6(7H)-one]: the Emax was determined as 112% and it took 130 nM to reach a half-maximal effect (EC50).

Take `CC1(c2ccc(F)cc2)C(=O)Nc2nc(-c3cn4cc(C(F)(F)F)nc4c(CCC(F)(F)C(F)(F)F)n3)nc(N)c21` (stereo not drawn) [Example 156A, 4-amino-5-(4-fluorophenyl)-5-methyl-2-(8-(3,3,4,4,4-pentafluorobutyl)-2-(trifluoromethyl)imidazo[1,2-a]pyrazin-6-yl)-5H-pyrrolo[2,3-d]pyrimidin-6(7H)-one]: the Emax was 92% and the EC50 was determined as 163 nM.

Take `CC1(c2ccccc2)C(=O)Nc2nc(-c3cn4cc(C5CC5)nc4c(CCC(F)(F)C(F)(F)F)n3)nc(N)c21` (stereo not drawn) [Example 158B, 4-amino-2-(2-cyclopropyl-8-(3,3,4,4,4-pentafluorobutyl)imidazo [1,2-a]pyrazin-6-yl)-5-methyl-5-phenyl-5H-pyrrolo[2,3-d]pyrimidin-6(7H)-one]: the Emax was determined as 109% and the EC50 is 296 nM.

For the compound `CCc1cn2cc(-c3nc(N)c4c(n3)NC(=O)C4(C)c3ccccc3)nc(CCC(F)(F)C(F)(F)F)c2n1` (stereo not drawn) [Example 160B, 4-amino-2-(2-ethyl-8-(3,3,4,4,4-pentafluorobutyl)imidazo [1,2-a]pyrazin-6-yl)-5-methyl-5-phenyl-5H-pyrrolo[2,3-d]pyrimidin-6(7H)-one], the Emax was 102% and a half-maximal response (EC50) required 978 nM.

On to `CCc1cnc2c(CCC(F)(F)C(F)(F)F)nc(-c3nc(N)c4c(n3)NC(=O)C4(C)c3ccc(F)cc3)cn12` (stereo not drawn) [Example 161A, 4-amino-2-(3-ethyl-8-(3,3,4,4,4-pentafluorobutyl)imidazo [1,2-a]pyrazin-6-yl)-5-(4-fluorophenyl)-5-methyl-5H-pyrrolo[2,3-d]pyrimidin-6(7H)-one], for which the Emax turned out to be 76% and the EC50 came out at 354 nM.

Consider `Cc1cn2cc(-c3nc(N)c4c(n3)NC(=O)C4(C)c3ccc(F)cn3)nc(Cc3ccc(F)cc3)c2n1` (stereo not drawn) [Example 162B, 4-amino-2-(8-(4-fluorobenzyl)-2-methylimidazo[1,2-a]pyrazin-6-yl)-5-(5-fluoropyridin-2-yl)-5-methyl-5H-pyrrolo[2,3-d]pyrimidin-6(7H)-one], for which the Emax was found to be 88% and it took 168 nM to reach a half-maximal effect (EC50).

For `Cc1cnc2c(Cc3ccc(F)cc3)nc(-c3nc(N)c4c(n3)NC(=O)C4(C)c3ccc(F)cn3)cn12` (stereo not drawn) [Example 163B, 4-amino-2-(8-(4-fluorobenzyl)-3-methylimidazo[1,2-a]pyrazin-6-yl)-5-(5-fluoropyridin-2-yl)-5-methyl-5H-pyrrolo[2,3-d]pyrimidin-6(7H)-one], the Emax worked out at 84% and the EC50 is 230 nM.

For the compound `CCCCc1nc(-c2nc(N)c3c(n2)NC(=O)C3(C)c2ccc(F)cn2)cn2cc(C)nc12` (stereo not drawn) [Example 164B, 4-amino-2-(8-butyl-2-methylimidazo[1,2-a]pyrazin-6-yl)-5-(5-fluoropyridin-2-yl)-5-methyl-5H-pyrrolo[2,3-d]pyrimidin-6(7H)-one], the Emax came out at 93% and the response was half-maximal at 81 nM (EC50).

As for `CCCCc1nc(-c2nc(N)c3c(n2)NC(=O)C3(C)c2ccc(F)cn2)cn2c(C)cnc12` (stereo not drawn) [Example 165B, 4-amino-2-(8-butyl-3-methylimidazo[1,2-a]pyrazin-6-yl)-5-(5-fluoropyridin-2-yl)-5-methyl-5H-pyrrolo[2,3-d]pyrimidin-6(7H)-one], the Emax turned out to be 81% and the EC50 came out at 43 nM.

Turning to `CCCCc1nc(-c2nc(N)c3c(n2)NC(=O)C3(C)c2ccc(C(F)(F)F)cn2)cn2c(C)cnc12` (stereo not drawn) [Example 167B, 4-amino-2-(8-butyl-3-methylimidazo[1,2-a]pyrazin-6-yl)-5-methyl-5-(5-(trifluoromethyl)pyridin-2-yl)-5H-pyrrolo[2,3-d]pyrimidin-6(7H)-one], the Emax was determined as 99% and the EC50 is 41 nM.

In the case of `CCCCc1nc(-c2nc(N)c3c(n2)NC(=O)C3(C)c2ccc(Cl)cn2)cn2c(C)cnc12` (stereo not drawn) [Example 169A, 4-amino-2-(8-butyl-3-methylimidazo[1,2-a]pyrazin-6-yl)-5-(5-chloropyridin-2-yl)-5-methyl-5H-pyrrolo[2,3-d]pyrimidin-6(7H)-one], the Emax turned out to be 75% and the midpoint of the response, the EC50, lay at 19 nM.

With `Cc1nc2c(CCC(F)(F)C(F)(F)F)nc(-c3nc(N)c4c(n3)NC(=O)C4(C)c3ccc(F)cc3)cn2c1C` (stereo not drawn) [Example 177A, 4-amino-2-(2,3-dimethyl-8-(3,3,4,4,4-pentafluorobutyl)imidazo [1,2-a]pyrazin-6-yl)-5-(4-fluorophenyl)-5-methyl-5H-pyrrolo[2,3-d]pyrimidin-6(7H)-one], the Emax worked out at 107% and a half-maximal effect (EC50) was put at 129 nM.

With `CC1(c2ccc(F)cc2F)C(=O)Nc2nc(-c3cn4ccnc4c(CCC(F)(F)F)n3)nc(N)c21` (stereo not drawn) [Example 180A, 4-amino-5-(2,4-difluorophenyl)-5-methyl-2-(8-(3,3,3-trifluoropropyl)imidazo[1,2-a]pyrazin-6-yl)-5H-pyrrolo[2,3-d]pyrimidin-6(7H)-one], the Emax is 115% and the EC50 came out at 39 nM.

Regarding `CC1(c2ccc(Cl)cc2Cl)C(=O)Nc2nc(-c3cn4ccnc4c(CCC(F)(F)F)n3)nc(N)c21` (stereo not drawn) [Example 187A, 4-amino-5-(2,4-dichlorophenyl)-5-methyl-2-(8-(3,3,3-trifluoropropyl)imidazo[1,2-a]pyrazin-6-yl)-5H-pyrrolo[2,3-d]pyrimidin-6(7H)-one], the Emax was 126% and the 50% effective concentration (EC50) stood at 1070 nM.

As to `CC1(c2cccc(F)c2)C(=O)Nc2nc(-c3cn4ccnc4c(CCC(F)(F)F)n3)nc(N)c21` (stereo not drawn) [Example 191A, 4-amino-5-(3-fluorophenyl)-5-methyl-2-(8-(3,3,3-trifluoropropyl)imidazo[1,2-a]pyrazin-6-yl)-5H-pyrrolo[2,3-d]pyrimidin-6(7H)-one], the Emax amounted to 90% and the EC50 came to 130 nM.
